Earlier results in patent US20220370529A1, “CANNABIS COMPOSITIONS AND RELATED METHODS” (Access Business Group International LLC, priority 2021, published 2022).

Key:
[1] = tested on: human keratinocytes (HaCaT cells); settings: of 26 genes upregulated by TNF-α treatment
[2] = tested on: human dermal fibroblast (HDF); settings: HDF cells
[3] = with rapid metabolism or redistribution

Row | SMILES | inflammatory related genes downregulated [1] [genes] | inhibitory effects on genes playing a role in inflammation and matrix remodeling, including IL-6 and MMP-9 ([2]; TNF-α treatment) | wound healing genes downregulated ([2]; of 16 genes upregulated by TNF-α treatment) [genes] | partition coefficient (log P) | human pulmonary uptake [3] [%]
1 | C=C(C)[C@@H]1CCC(C)=C[C@H]1c1c(O)cc(CCCCC)cc1O [CBD, cannabidiol] | 15 | did not exhibit any inhibitory effects | 11 | ~6.3 | –
2 | CC1=CC[C@H]2C[C@@H]1C2(C)C [α-Pinene, α-pinene] | – | – | – | – | ~60
